Results from patent publication US9382188B2, “Aromatic ring compound” (TAKEDA PHARMACEUTICAL COMPANY LIMITED, priority 2012, dated 2016).

target: T1, human GPR40 (Homo sapiens, UniProt O14842); assay: Evaluation of human GPR40 agonist activity with increase in intracellular Ca2+ concentration as an index (FLIPR Tetra); format: cell-based; conditions: test compound 1 μM; CHO(dhfr-) cells stably expressing human GPR40; 100% = activity of 1 μM WO2009/048527 Example 99.2, 0% = DMSO
T1 construct: expressed in transfected cells
Description: Evaluation of human GPR40 agonist activity with increase in intracellular Ca^2+ concentration as an index
CHO(dhfr-) cells that stably expressed human GPR40 were suspended in MEMα (Nikken Bio Medical Laboratory) containing 10% dialysis serum (GEMINI BIO-PRODUCTS), 10 mM HEPES (Invitrogen), 100 U/mL penicillin, 100 μg/mL streptomycin (Invitrogen), and plated on a 384 well black/clear cell culture plate at 10,000 cells/well. After culture overnight in a CO2 incubator at 37° C., the culture supernatant was removed, and a loading buffer [dye attached to Calcium 5 Assay Kit (Molecular Devices) was dissolved in an assay buffer (20 mM HEPES, 0.2% fatty acid-free BSA (Sigma-Aldrich), 2.5 mM probenecid (DOJINDO)-containing HBSS (Invitrogen)) added with 0.025% Cremophor EL (DOJINDO)] was added at 37.5 μL/well. After incubation in a CO2 incubator at 37° C. for 1 hr, the cells were stood at room temperature for 15 min, an assay buffer containing the test compound at a final concentration of 1 μM was added at 12.5 μL/well in FLIPR Tetra (Molecular Devices), and the fluorescence amount was successively measured. Human GPR40 agonist activity calculated using an increase in the intracellular Ca^2+ concentration as an index, wherein the activity of 1 μM of the compound described in WO 2009/048527 (WO2009/048527 Example 99.2) was 100%, and the activity when DMSO was added instead of the test compound was 0%.

T1 sequence (O14842 whole entry): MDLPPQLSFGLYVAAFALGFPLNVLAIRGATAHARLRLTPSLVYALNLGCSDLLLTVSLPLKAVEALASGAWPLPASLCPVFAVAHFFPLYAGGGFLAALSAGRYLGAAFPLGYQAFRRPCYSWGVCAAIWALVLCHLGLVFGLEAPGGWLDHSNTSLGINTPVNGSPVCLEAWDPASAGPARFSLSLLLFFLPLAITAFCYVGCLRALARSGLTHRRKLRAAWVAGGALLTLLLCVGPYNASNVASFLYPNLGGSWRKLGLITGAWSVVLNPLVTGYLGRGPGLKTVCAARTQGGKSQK

activation at 1 µM [%]	Human GPR40 agonist activity (increase in intracellular Ca2+ concentration) [%]	SMILES
98		COc1ccc(F)c(-c2ccc(OCc3cccc(OCC(=O)O)c3)nc2CC(C)(C)C)c1 [Example 1, (3-(((6-(2,2-dimethylpropyl)-5-(2-fluoro-5-methoxyphenyl)pyridin-2-yl)oxy)methyl)phenoxy)acetic acid]
108		COc1ccc(F)c(-c2ccc(OCc3cccc(OCC(=O)O)c3)cc2CC(C)(C)C)c1 [Example 2, (3-(((2-(2,2-dimethylpropyl)-2′-fluoro-5′-methoxybiphenyl-4-yl)oxy)methyl)phenoxy)acetic acid]
103		COc1ccc(F)c(-c2ccc(OCc3cccc(C(CC(=O)O)C4CC4)c3)cc2CC(C)(C)C)c1 (stereo not shown) [Example 3, 3-cyclopropyl-3-(3-(((2-(2,2-dimethylpropyl)-2′-fluoro-5′-methoxybiphenyl-4-yl)oxy)methyl)phenyl)propanoic acid]
110		COc1ccc(F)c(-c2ccc(OCc3cccc(C(CC(=O)O)C4CC4)c3)nc2CC(C)(C)C)c1 (stereo not shown) [Example 4, 3-cyclopropyl-3-(3-(((6-(2,2-dimethylpropyl)-5-(2-fluoro-5-methoxyphenyl)pyridin-2-yl)oxy)methyl)phenyl)propanoic acid]
	98	COc1ccc(F)c(-c2ccc(OCc3cccc(C(CC(=O)O)C4CC4)c3)nc2CC(C)(C)C)c1 (stereo not shown) [Example 6, sodium 3-cyclopropyl-3-(3-(((6-(2,2-dimethylpropyl)-5-(2-fluoro-5-methoxyphenyl)pyridin-2-yl)oxy)methyl)phenyl)propanoate]
108		COc1ccc(F)c(-c2ccc(OCc3cccc(CCC(=O)O)c3)cc2CC(C)(C)C)c1 [Example 7, 3-(3-(((2-(2,2-dimethylpropyl)-2′-fluoro-5′-methoxybiphenyl-4-yl)oxy)methyl)phenyl)propanoic acid]
98		COc1ccc(F)c(-c2ccc(NCc3cccc(C(CC(=O)O)C4CC4)c3)cc2CC(C)(C)C)c1 (stereo not shown) [Example 8, 3-cyclopropyl-3-(3-(((2-(2,2-dimethylpropyl)-2′-fluoro-5′-methoxybiphenyl-4-yl)amino)methyl)phenyl)propanoic acid]
103		COc1ccc(F)c(-c2ccc(N(C)Cc3cccc(C(CC(=O)O)C4CC4)c3)cc2CC(C)(C)C)c1 (stereo not shown) [Example 9, 3-cyclopropyl-3-(3-(((2-(2,2-dimethylpropyl)-2′-fluoro-5′-methoxybiphenyl-4-yl)(methyl)amino)methyl)phenyl)propanoic acid]
106		COc1ccc(F)c(-c2ccc(N(Cc3cccc(C(CC(=O)O)C4CC4)c3)CC(F)(F)F)cc2CC(C)(C)C)c1 (stereo not shown) [Example 11, 3-cyclopropyl-3-(3-(((2-(2,2-dimethylpropyl)-2′-fluoro-5′-methoxybiphenyl-4-yl)(2,2,2-trifluoroethyl)amino)methyl)phenyl)propanoic acid]
113		COc1ccc(F)c(-c2ccc(SCc3cccc(C(CC(=O)O)C4CC4)c3)cc2CC(C)(C)C)c1 (stereo not shown) [Example 12, 3-cyclopropyl-3-(3-(((2-(2,2-dimethylpropyl)-2′-fluoro-5′-methoxybiphenyl-4-yl)sulfanyl)methyl)phenyl)propanoic acid]
98		COc1ccc(F)c(-c2ccc(OCc3cccc(C(CC(=O)O)C4CC4)c3)cc2-c2ccc(C(F)(F)F)cc2)c1 (stereo not shown) [Example 17, 3-cyclopropyl-3-(3-(((2-fluoro-5-methoxy-4″-(trifluoromethyl)-1,1′:2′,1″-terphenyl-4′-yl)oxy)methyl)phenyl)propanoic acid]
120		COc1ccc(F)c(-c2ccc(OCc3cccc(C(CC(=O)O)C4CC4)c3)cc2-c2cnc(C)s2)c1 (stereo not shown) [Example 19, 3-cyclopropyl-3-(3-(((2′-fluoro-5′-methoxy-2-(2-methyl-1,3-thiazol-5-yl)biphenyl-4-yl)oxy)methyl)phenyl)propanoic acid]
103		COc1ccc(F)c(-c2ccc(OCc3cccc(C(CC(=O)O)C4CC4)c3)c(CCCC(C)(C)C)c2)c1 (stereo not shown) [Example 21, 3-cyclopropyl-3-(3-(((3-(4,4-dimethylpentyl)-2′-fluoro-5′-methoxybiphenyl-4-yl)oxy)methyl)phenyl)propanoic acid]
99		COc1ccc(F)c(-c2ncc(OCc3cccc(C(CC(=O)O)C4CC4)c3)cc2CC(C)(C)C)c1 (stereo not shown) [Example 22, 3-cyclopropyl-3-(3-(((5-(2,2-dimethylpropyl)-6-(2-fluoro-5-methoxyphenyl)pyridin-3-yl)oxy)methyl)phenyl)propanoic acid]
106		COc1ccc(F)c(-c2ccc(OCc3cc(C(CC(=O)O)C4CC4)ccn3)cc2CC(C)(C)C)c1 (stereo not shown) [Example 24, 3-cyclopropyl-3-(2-(((2-(2,2-dimethylpropyl)-2′-fluoro-5′-methoxybiphenyl-4-yl)oxy)methyl)pyridin-4-yl)propanoic acid]
108		COc1ccc(F)c(-c2ccc(OCc3cc(C(CC(=O)O)C4CC4)ccn3)nc2CC(C)(C)C)c1 (stereo not shown) [Example 25, 3-cyclopropyl-3-(2-(((6-(2,2-dimethylpropyl)-5-(2-fluoro-5-methoxyphenyl)pyridin-2-yl)oxy)methyl)pyridin-4-yl)propanoic acid]
105		COc1ccc(F)c(-c2ccc(OCc3cccc(C(CC(=O)O)C4CC4)c3)cc2CC(C)(C)C#N)c1 (stereo not shown) [Example 26, 3-(3-(((2-(2-cyano-2-methylpropyl)-2′-fluoro-5′-methoxybiphenyl-4-yl)oxy)methyl)phenyl)-3-cyclopropylpropanoic acid]
119		COc1ccc(F)c(-c2ccc(OCc3cc(C(CC(=O)O)C4CC4)ccn3)cc2CC(C)(C)C#N)c1 (stereo not shown) [Example 27, 3-(2-(((2-(2-cyano-2-methylpropyl)-2′-fluoro-5′-methoxybiphenyl-4-yl)oxy)methyl)pyridin-4-yl)-3-cyclopropylpropanoic acid]
95		COc1ccc(F)c(-c2ccc(OCc3cccc(C(CC(=O)O)C4CC4)c3)cc2-c2ccc(C#N)s2)c1 (stereo not shown) [Example 28, 3-(3-(((2-(5-cyano-2-thienyl)-2′-fluoro-5′-methoxybiphenyl-4-yl)oxy)methyl)phenyl)-3-cyclopropylpropanoic acid]
103		COc1ccc(F)c(-c2ccc(OCc3cc(C(CC(=O)O)C4CC4)ncn3)nc2CC(C)(C)C)c1 (stereo not shown) [Example 30, 3-cyclopropyl-3-(6-(((6-(2,2-dimethylpropyl)-5-(2-fluoro-5-methoxyphenyl)pyridin-2-yl)oxy)methyl)pyrimidin-4-yl)propanoic acid]
108		COc1ccc(F)c(-c2ccc(OCc3cc(C(CC(=O)O)C4CC4)ncn3)cc2CC(C)(C)C)c1 (stereo not shown) [Example 31, 3-cyclopropyl-3-(6-(((2-(2,2-dimethylpropyl)-2′-fluoro-5′-methoxybiphenyl-4-yl)oxy)methyl)pyrimidin-4-yl)propanoic acid]
102		COc1ccc(F)c(-c2ccc(C(F)Cc3cccc(CCC(=O)O)c3)nc2CC(C)(C)C)c1 (stereo not shown) [Example 36, 3-(3-(2-(6-(2,2-dimethylpropyl)-5-(2-fluoro-5-methoxyphenyl)pyridin-2-yl)-2-fluoroethyl)phenyl)propanoic acid]
111		COc1ccc(F)c(-c2ccc(OCc3cccc(C(CC(=O)O)C4CC4)c3)cc2OCC(C)(C)C)c1 (stereo not shown) [Example 38, 3-cyclopropyl-3-(3-(((2-(2,2-dimethylpropoxy)-2′-fluoro-5′-methoxybiphenyl-4-yl)oxy)methyl)phenyl)propanoic acid]
105		COc1ccc(F)c(-c2ccc(OCc3cccc(C(CC(=O)O)C4CCCC4)c3)cc2CC(C)(C)C)c1 (stereo not shown) [Example 39, 3-cyclopentyl-3-(3-(((2-(2,2-dimethylpropyl)-2′-fluoro-5′-methoxybiphenyl-4-yl)oxy)methyl)phenyl)propanoic acid]
114		COc1ccc(F)c(-c2ccc(OCc3cccc(C(CC(=O)O)C4CCCCC4)c3)cc2CC(C)(C)C)c1 (stereo not shown) [Example 40, 3-cyclohexyl-3-(3-(((2-(2,2-dimethylpropyl)-2′-fluoro-5′-methoxybiphenyl-4-yl)oxy)methyl)phenyl)propanoic acid]
101		COc1ccc(F)c(-c2ccc(OCc3cccc(C(CC(=O)O)C4CC4)c3)cc2CC2(C#N)CCCC2)c1 (stereo not shown) [Example 41, 3-(3-(((2-((1-cyanocyclopentyl)methyl)-2′-fluoro-5′-methoxybiphenyl-4-yl)oxy)methyl)phenyl)-3-cyclopropylpropanoic acid]
104		COc1ccc(F)c(-c2ccc(OCc3cccc(C(CC(=O)O)C4CCC4)c3)cc2CC(C)(C)C)c1 (stereo not shown) [Example 42, 3-cyclobutyl-3-(3-(((2-(2,2-dimethylpropyl)-2′-fluoro-5′-methoxybiphenyl-4-yl)oxy)methyl)phenyl)propanoic acid]
107		C=CCCC(CC(=O)O)c1cccc(COc2ccc(-c3cc(OC)ccc3F)c(CC(C)(C)C)c2)c1 (stereo not shown) [Example 43, 3-(3-(((2-(2,2-dimethylpropyl)-2′-fluoro-5′-methoxybiphenyl-4-yl)oxy)methyl)phenyl)hept-6-enoic acid]
